Results reported in patent US4068003A, “Method of medical treatment of myasthenia” (priority 1976, dated 1978).

How the values were obtained:
[1] = Clinical test in myasthenia gravis, case [I] (person); type: in vivo, human
Description: (§1) The effects of the present invention for the treatment of myasthenia gravis will be shown with reference to the results of clinical tests.
They were attacked with myasthenia. […] Ambenonium is a cholinesterase inhibitor and available, for example, under the trademark Myterase. One year before the first medical examination in this hospital, they took 20 mg/day of Ambenonium.
At the first medical examination, drooping of the left eyelid, disorder in the movement of the left eyeball and fatiguing of the limbs were observed. […] The administration according to the recipe was continued for 30 days and, thereafter, dosage of Ambenonium was reduced to 10 mg/day (morning and evening: 5 mg each). This treatment was continued for a further period of 30 days.

[2] = Clinical test in myasthenia gravis, case [II] (person); type: in vivo, human
Description: as §1
Thereafter, they took 20-25 mg/day of Ambenonium perorally intermittently.
At the first medical examination, eye symptoms such as eyelid drooping and double vision and evervation in limbs were remarkable. As for the walking ability, they barely walked 100 m even when the effect of Ambenonium was exerted.
By peroral administration of 25 mg/day of Ambenonium and 30 mg/day of Coenzyme Q10, muscular contraction was caused 2-3 days after the start of the treatment. Dosage of Ambenonium was reduced to 20 mg/day. After the treatment was continued according to this recipe for one week, the heavy feeling of the body, double vision and the eye symptoms were relieved. Continuous 400 m walking was made possible.

[3] = Acute toxicity test, single high dose, rats; type: in vivo, rats of Wistar strain; conditions: for Maximum dose (no case of deaths): single dose, 7 days observation
Text: (§2) In order to evaluate the acute toxicity of a single high dose administration of Coenzyme Q10, male and female rats of Wistar strain and male and female mice of ICR-JCL strain were used, and oral, intramuscular, subcutaneous, and intravenous administrations were studied. For the oral administration of Coenzyme Q10, gum Arabic suspension was used. For the intramuscular, subcutaneous and intravenous administrations, Coenzyme Q10 was used as a solution containing a nonionic surfactant, Nikkol HCO-60. Nikkol HCO-60 is a trade mark of a non-ionic surfactant comprised of hydrogenated castor oil/polyoxyethylene-60 mole ether available from Nikko Chemicals, Co. Ltd., Japan.
(§3) Observation was carried out for 7 days by using six males and six females for each dose group.

[4] = Acute toxicity test, single high dose, mice; type: in vivo, mice of ICR-JCL strain; conditions: for Maximum dose (no case of deaths): single dose, 7 days observation
Text: as §2, §3

[5] = Subacute oral toxicity test in rats (5 weeks); type: in vivo, rats of Wistar strain
Description: (§4) Coenzyme Q10 was compulsorily and orally administered every day for 5 weeks to each group consisting of 10 male rats and 10 female rats of Wistar strain. The dose was 40, 200, and 1000 mg/Kg/day, respectively. Coenzyme Q10 was used in the form of gum Arabic suspension, while the solution containing gum Arabic alone was used as the control group. Collection of blood and urine samples and autopsies were carried out 5 weeks after the initiation of administration.

[6] = Subacute oral toxicity test in rabbits (23 days); type: in vivo
Description: Coenzyme Q10 was compulsorily and orally administered every day for 23 days to each group consisting of 6 male rabbits and 5 female rabbits. The dose was 6, 60 and 600 mg/Kg/day, respectively. Coenzyme Q10 was used in the form of gum Arabic suspension, whereas the solution containing gum Arabic alone was used as the control group. On the 24th day, blood samples were collected from all the animals, and 3 males and 2 females from each group were then selectively autopsied.

[7] = Chronic oral toxicity test (26 weeks); type: in vivo, rats of Wistar strain
Description: Coenzyme Q10 was compulsorily and orally administered to each group consisting of 10 male rats and 10 female rats of Wistar strain for consecutive 26 weeks in a ratio of 6 days a week. The dose was 6, 60 and 600 mg/Kg/day, respectively. Coenzyme Q10 was used in the form of gum Arabic suspension, whereas the solution containing gum Arabic alone is used as the control group. Collection of blood and urine samples and autopsies were carried out 26 weeks after the administration.

Teratogenesis test, rats = type: in vivo; conditions: rats, 6, 60, 600 mg/Kg/day
Teratogenesis test, mice = type: in vivo; conditions: mice, 6, 60, 600 mg/Kg/day
[8] = Clinical test in myasthenia gravis, case [III] (person); type: in vivo, human
Text: as §1
The patient was attacked by myasthenia. At the first medical examination, only eyelid drooping (eye fissure: left 5 mm, right 2 mm) was observed.

[9] = Overall result of acute, subacute, chronic toxicity and teratogenesis tests; type: in vivo
Text: as §2, §4
Coenzyme Q10 was compulsorily and orally administered every day for 23 days to each group consisting of 6 male rabbits and 5 female rabbits. The dose was 6, 60 and 600 mg/Kg/day, respectively. […]

[10] = all routes, maximum doses of Table 1
[11] = any administration group, 7 days
[12] = at the maximum dose in each administration route
[13] = intramuscular, Nikkol HCO-60 solution
[14] = intravenous, Nikkol HCO-60 solution
[15] = subcutaneous, Nikkol HCO-60 solution
[16] = rats, 40, 200, 1000 mg/Kg/day oral, 5 weeks
[17] = rabbits, 6, 60, 600 mg/Kg/day oral, 23 days
[18] = group not stated, spontaneous pneumonia and aspiration pneumonia due to erroneous administration
[19] = rats, 6, 60, 600 mg/Kg/day oral, 26 weeks, vs control group
[20] = Coenzyme Q10 30 mg/day, Ambenonium reduced to 20 mg/day, one week
[21] = Coenzyme Q10 30 mg/day peroral in combination with Distigmine Bromide

With `CC[N+](CC)(CCNC(=O)C(=O)NCC[N+](CC)(CC)Cc1ccccc1Cl)Cc1ccccc1Cl` [Ambenonium] as the molecule, how does the “improvement in the symptoms” value ([1]; Ambenonium alone, 20 mg/day peroral, 4 months) read?
Its value is “no significant improvement in the symptoms”.

And the walking ability ([2]; at first medical examination, under effect of Ambenonium, before Coenzyme Q10, barely walked)?
The walking ability was roughly 100 m.

Which “toxicity (acute)” value [3] does the source give for `COC1=C(OC)C(=O)C(C/C=C(\C)CC/C=C(\C)CC/C=C(\C)CC/C=C(\C)CC/C=C(\C)CC/C=C(\C)CC/C=C(\C)CC/C=C(\C)CC/C=C(\C)CCC=C(C)C)=C(C)C1=O` [Coenzyme Q10] here?
Its value is “extremely low”.

And the LD50 [3, 10]?
Its LD50 is “far higher than the maximum dose mentioned above”.

What about the “general condition, body weight, food intake and autopsy findings” value [3, 11] of the same molecule?
Its value is “no change”.

And the deaths [3, 12]?
The deaths was “no case of deaths”.

What about the “Maximum dose (no case of deaths)” value [3, 13] of the same molecule?
The value was 500 mg/kg.

What about the “Maximum dose (no case of deaths)” value [3, 14] of the same molecule?
The value was 250 mg/kg.

What about the “Maximum dose (no case of deaths)” value ([3]; oral, gum Arabic suspension) of the same molecule?
The value was 4000 mg/kg.

And the “Maximum dose (no case of deaths)” value [3, 15]?
The value was 500 mg/kg.

What about the “toxicity (acute)” value [4] of the same molecule?
The value was “extremely low”.

And the LD50 [4, 10]?
The LD50 was “far higher than the maximum dose mentioned above”.

What about the “general condition, body weight, food intake and autopsy findings” value [4, 11] of the same molecule?
Its value is “no change”.

And the deaths [4, 12]?
Its deaths is “no case of deaths”.

And the “Maximum dose (no case of deaths)” value [4, 13]?
Its value is 500 mg/kg.

What about the “Maximum dose (no case of deaths)” value [4, 14] of the same molecule?
The value was 250 mg/kg.

And the “Maximum dose (no case of deaths)” value ([4]; oral, gum Arabic suspension)?
Its value is 4000 mg/kg.

What about the “Maximum dose (no case of deaths)” value [4, 15] of the same molecule?
The value was 500 mg/kg.

And the “dead animals during the experiment” value ([5]; group not stated, spontaneous pneumonia and aspiration pneumonia due to error of administration)?
Its value is 4 animals.

What about the “toxicity (subacute oral)” value ([5]; rats, 5 weeks) of the same molecule?
The value was “not recognized”.

And the “hematological test and biochemical test of blood and urine” value [5, 16]?
The value was “No significant change”.

What about the “weight of each organ” value [5, 16] of the same molecule?
The value was “no significant change”.

What about the “general condition and body weight” value ([5]; rats, 40, 200, 1000 mg/Kg/day oral, 5 weeks, vs control group) of the same molecule?
Its value is “no difference”.

What about the “electron-microscopic observation of liver (minute structure)” value ([6]; 7th, 14th and 24th days) of the same molecule?
Its value is “not recognized abnormal findings”.

What about the “macroscopical and histological observation” value ([6]; hematoxylin.Eosine staining and liver fat staining, 23 days) of the same molecule?
The value was “abnormalities were not recognized”.

What about the “hematological test and biochemical test of blood” value [6, 17] of the same molecule?
Its value is “Abnormal findings were not obtained”.

What about the “weight of each organ” value [6, 17] of the same molecule?
The value was “no effect”.

And the “general condition and increase of body weight” value ([6]; rabbits, 6, 60, 600 mg/Kg/day oral, 23 days, vs control group)?
Its value is “no difference”.

And the “toxicity (subacute oral)” value ([6]; rabbits, 23 days)?
Its value is “not recognized”.

What about the “deaths, females” value [7, 18] of the same molecule?
Its value is 3 females.

What about the “deaths, males” value [7, 18] of the same molecule?
The value was 11 males.

What about the “macroscopical and histological observation” value ([7]; hemoxylin.Eosine staining and liver fat staining, 26 weeks, vs control group) of the same molecule?
Its value is “abnormalities were not recognized”.

And the body weight [7, 19]?
The body weight was “increased the same as that of the control group”.

And the general condition [7, 19]?
The general condition was “no difference”.

And the “toxicity (chronic oral)” value ([7]; rats, 26 weeks)?
Its value is “no toxicity was observed”.

What about the weights of organs ([7]; rats, 26 weeks) of the same molecule?
The weights of organs was “no significant increase and decrease”.

What about the “biochemical tests of blood and urine” value ([7]; rats, 26 weeks, vs control group) of the same molecule?
Its value is “No significant changes”.

And the “leukocytal percentages (hematological findings)” value ([7]; rats, 26 weeks, some increase and decrease, not dose-related)?
The value was “within the range of physiological fluctuations”.

And the “adverse effects in mothers, fetuses, and newborns” value (Teratogenesis test, rats)?
The value was “no adverse effects”.

And the “adverse effects in mothers, fetuses, and newborns” value (Teratogenesis test, mice)?
Its value is “no adverse effects”.

What about the “walking and work ability” value ([1]; 30 days combination, then Ambenonium reduced to 10 mg/day for further 30 days) of the same molecule?
The value was “long distance walking and light work became possible”.

And the “symptoms after further reduction of Ambenonium” value ([1]; Ambenonium reduced to 5 mg/day)?
Its value is “no worsening of the symptoms was caused and the patient is now getting better”.

And the “improvement in symptoms (walking, breathing)” value ([1]; Coenzyme Q10 30 mg/day peroral in combination with Ambenonium, at the start)?
Its value is “an improvement in walking and relief in a feeling of difficulty in breathing”.

And the “time to muscular contraction after start of treatment” value ([2]; Coenzyme Q10 30 mg/day with Ambenonium 25 mg/day, peroral)?
The value was 2 to 3 days.

What about the “continuous walking made possible” value [2, 20] of the same molecule?
Its value is 400 m.

And the “heavy feeling of the body, double vision and eye symptoms” value [2, 20]?
The value was “relieved”.

And the “ascending and descending stairs” value [8, 21]?
The value was “could ascend and descend stairs easily”.

What about the “need for the dropping lotion” value [8, 21] of the same molecule?
Its value is “became unnecessary”.

What about the “opening of the eyelids” value [8, 21] of the same molecule?
Its value is “improve and to stabilize the opening of the eyelids”.

What about the “walking straight looking ahead” value ([8]; Coenzyme Q10 30 mg/day peroral in combination with Distigmine Bromide, difficult before) of the same molecule?
The value was “could walk easily”.

What about the overall safety [9] of the same molecule?
Its overall safety is “very safe drug, without side-effects”.

Which results are given for `CN(CCCCCCN(C)C(=O)Oc1ccc[n+](C)c1)C(=O)Oc1ccc[n+](C)c1` [Distigmine Bromide]?
eye fissure, left ([8]; Distigmine Bromide 10 mg/day peroral plus 0.5 % eye drops, 6 months, before: left 5 mm): 6 mm; eye fissure, right ([8]; Distigmine Bromide 10 mg/day peroral plus 0.5 % eye drops, 6 months, before: right 2 mm): 4 mm; symptoms (eyelid drooping) ([8]; Distigmine Bromide peroral plus eye drops, 6 months): improved a little
